Assay results: PubChem BioAssay AID1918943 (Molecular Pharmacology Branch, DTP, NCI, 2023)

System: 855422-203-R-J1-PDC complex spheroid viability
Test: Anticancer human tumor 855422-203-R-J1-PDC patient-derived bladder carcinoma cell line growth inhibition
Settings: for IC50: curve of first compound; for viability, T/C: stronger effect = lower value
Text: Multicellular complex tumor spheroid response to LSD1 Inhibitor Iadademstat in combination with a variety of drugs and investigational agents in selected tumor cell lines
The current study was undertaken to assess response to LSD1 inhibitors in combination with standard-of-care drugs and investigational agents in solid tumor complex spheroid models as well as in the K-562 leukemia. Complex spheroids include a stromal component modeled by human endothelial cells (HUVEC) and fibroblasts modeled by human mesenchymal stem cells (MSCs). The concentration ranges selected for each drug and investigational agent were based upon clinically achievable concentrations if the clinical Cmax of the agent was known.
Compounds. The drugs and investigational agents used in this study are listed on Table 1. All of the agents used, including staurosporine (NSC755774) and gemcitabine (NSC613327), were obtained from the Developmental Therapeutics Program, NCI. FDA-approved anticancer drugs are available from the NCI at http://dtp.nci.nih.gov/branches/dscb/oncology_drugset_explanation.html. Drugs and investigational agents were >95% pure by proton nuclear magnetic resonance (NMR) and liquid chromatography/mass spectrometry (LC/MS). Stock solutions were prepared at 400x in DMSO, stored at -70 degrees C, and diluted in fresh medium prior to their use. The final concentration of DMSO in cell culture wells never exceeded 0.25% (v/v). The FDA-approved anticancer drug set is available from the Developmental Therapeutics Program at https://dtp.cancer.gov/organization/dscb/obtaining/available_plates.htm. All drugs and investigational agents were tested over a range starting from a high concentration at or near the clinical Cmax and decreasing in half-log increments. If the clinical Cmax for an agent had not been determined, the highest concentration tested was 10 microM.
Cell Lines. The patient-derived cancer cell (PDC) lines: 292921-168-R-J2-PDC, K24384-001-R-PDC, and 521955-158-R2-J5-PDC pancreatic carcinomas, 556581-035-R-J1 ovarian carcinoma, 324938-238-R-J1-PDC, 855422-203-R-J1-PDC and 883617-216-R-J1-PDC urothelial bladder carcinomas, 743489-274-T-PDC renal cell carcinoma, 138582-R-J1 Merkel cell tumor, K60290-347-R-J1 and K57222-313-R-J1-PDC glioblastomas, 653999-131-R-J2-PDC, LG0703-F948-PDC, and 349418-098-R-PDC non-small cell lung carcinomas, 885512-296-R-J2-PDC, 171881-019-R-J1-PDC breast carcinomas and 186277-243-T-J2-PDC and 233499-124-R-J2-PDC colon carcinomas were obtained from the NCI Patient-Derived Models Repository (PDMR, https://pdmr.cancer.gov). The established cell lines NCI/ADR-RES (RRID:CVCL_14520 and OVCAR-5 (RRID:CVCL_1628) ovarian carcinomas, 786-O (RRID:CVCL_1051) and A498 (RRID:CVCL_A498) renal cell carcinoma, NCI-H211 (ATCC, cat. CRL-5824; RRID:CVCL_1529), NCI-H196 (ATCC, cat. CRL-5823, RRID:CVCL_1509), SW 1271 (ATCC, cat. CRL-2177, RRID:CVCL_1716) and NCI-H1876 (ATCC, cat. CRL-5902, RRID:CVCL_1503) small cell lung carcinomas, MDA-MB-231 (RRID:CVCL_0062) and MDA-MB-468 (RRID:CVCL_0419)breast carcinomas (10-12). Pooled donor human umbilical vein endothelial cells (HUVEC, Lonza, cat. CC-2519) and human mesenchymal stem cells (hMSC, Lonza, cat. PT-2501) were purchased from Lonza (Walkersville, MD).
Cell Culture. All cells were maintained in an incubator at 37 degrees C and 5% CO2 with 95% humidity. The PDC lines were cultured according to standard operating procedures established by the NCI PDMR (https://pdmr.cancer.gov). Briefly all PDCs were thawed and cultured in Matrigel-coated flasks prepared with a working solution of 1X Ham's F-12 nutrient mix, without supplementation (Invitrogen, Waltham, MA, cat. 11765054), 100 U/mL penicillin-streptomycin (Invitrogen, cat. 15140122), and 2.5% Matrigel (Corning Inc., Corning, NY, cat. 354248) for the first three passages. […]

[1] = second compound 0.1 µM, first compound 0.000316 µM
[2] = second compound 0.1 µM, first compound 0.001 µM
[3] = second compound 0.1 µM, first compound 0.00316 µM
[4] = second compound 0.1 µM, first compound 0.01 µM
[5] = second compound 0.1 µM, first compound 0.0316 µM
[6] = second compound 0.1 µM, first compound 0.1 µM
[7] = second compound 0.316 µM, first compound 0.000316 µM
[8] = second compound 0.316 µM, first compound 0.001 µM
[9] = second compound 0.316 µM, first compound 0.00316 µM
[10] = second compound 0.316 µM, first compound 0.01 µM
[11] = second compound 0.316 µM, first compound 0.0316 µM
[12] = second compound 0.316 µM, first compound 0.1 µM
[13] = second compound 1 µM, first compound 0.000316 µM
[14] = second compound 1 µM, first compound 0.001 µM
[15] = second compound 1 µM, first compound 0.00316 µM
[16] = second compound 1 µM, first compound 0.01 µM
[17] = second compound 1 µM, first compound 0.0316 µM
[18] = second compound 1 µM, first compound 0.1 µM
[19] = second compound 3.16 µM, first compound 0.000316 µM
[20] = second compound 3.16 µM, first compound 0.001 µM
[21] = second compound 3.16 µM, first compound 0.00316 µM
[22] = second compound 3.16 µM, first compound 0.01 µM
[23] = second compound 3.16 µM, first compound 0.0316 µM
[24] = second compound 3.16 µM, first compound 0.1 µM
[25] = second compound 10 µM, first compound 0.000316 µM
[26] = second compound 10 µM, first compound 0.001 µM
[27] = second compound 10 µM, first compound 0.00316 µM
[28] = second compound 10 µM, first compound 0.01 µM
[29] = second compound 10 µM, first compound 0.0316 µM
[30] = second compound 10 µM, first compound 0.1 µM
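Note: drug exposure lasted 7 days starting on day 3 after seeding.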
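Throughout, for viability, T/C: luminescence viability as percent of DMSO vehicle wells = 100%.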

Compound	IC50 (second compound 0.1 µM) [nM]	IC50 (second compound 0.316 µM) [nM]	IC50 (second compound 1 µM) [nM]	IC50 (second compound 3.16 µM) [nM]	IC50 (second compound 10 µM) [nM]	viability, T/C [1] [%]	viability, T/C [2] [%]	viability, T/C [3] [%]	viability, T/C [4] [%]	viability, T/C [5] [%]	viability, T/C [6] [%]	viability, T/C [7] [%]	viability, T/C [8] [%]	viability, T/C [9] [%]	viability, T/C [10] [%]	viability, T/C [11] [%]	viability, T/C [12] [%]	viability, T/C [13] [%]	viability, T/C [14] [%]	viability, T/C [15] [%]	further results
CC(C)CC(NC(=O)C(Cc1ccccc1)NC(=O)c1cnccn1)B(O)O (stereo not given) + NC1CC1c1ccc(-c2cccc(O)c2)cc1	0.641	0.627	0.61	0.603	0.578	127	1.42	0.04	0.01	0.03	0.14	122	1.03	0.02	0.01	0.02	0.11	115	0.89	0.02	viability, T/C [16]: 0.01%; viability, T/C [17]: 0.02%; viability, T/C [18]: 0.12%; viability, T/C [19]: 113%; viability, T/C [20]: 0.68%; viability, T/C [21]: 0.03%; viability, T/C [22]: 0.02%; viability, T/C [23]: 0.03%; viability, T/C [24]: 0.12%; viability, T/C [25]: 105%; viability, T/C [26]: 0.52%; viability, T/C [27]: 0.15%; viability, T/C [28]: 0.14%; viability, T/C [29]: 0.13%; viability, T/C [30]: 0.19%
CC(C)CC(NC(=O)CNC(=O)c1cc(Cl)ccc1Cl)B1OC(=O)CC(CC(=O)O)(C(=O)O)O1 (stereo not given) + NC1CC1c1ccc(-c2cccc(O)c2)cc1	1.8	1.83	1.84	1.75	1.55	92.8	104	3.7	0.43	0.02	0.13	104	102	3.27	1.25	0.02	0.1	94.6	108	3.81	viability, T/C [16]: 1.65%; viability, T/C [17]: 0.03%; viability, T/C [18]: 0.11%; viability, T/C [19]: 95%; viability, T/C [20]: 94.6%; viability, T/C [21]: 3.11%; viability, T/C [22]: 1%; viability, T/C [23]: 0.03%; viability, T/C [24]: 0.1%; viability, T/C [25]: 92%; viability, T/C [26]: 78.9%; viability, T/C [27]: 2.61%; viability, T/C [28]: 0.2%; viability, T/C [29]: 0.11%; viability, T/C [30]: 0.17%
